# Measured values: publication PMC6695355, “Alanine Scanning Studies of the Antimicrobial Peptide Aurein 1.2” (Probiotics and Antimicrobial Proteins, 2018)
# Where a SMILES comes first, the peptide text is derived from it.
# Experiments:
# [1] = system: S. aureus ATCC 25923 biofilm formation; type: cell-based, Staphylococcus aureus; conditions: ATCC 25923, 24 h
# Method: (§1) The minimum inhibitory concentrations (MICs) of test compounds were assessed by broth microdilution method on 96-well plates, according to the guidelines of Clinical and Laboratory Standards Institute (CLSI). For this purpose, reference strains of bacteria: S. aureus ATCC 25923, E. faecalis PCM 2673, E. coli ATCC 25922, and P. aeruginosa ATCC 9027; and fungus: C. albicans ATCC 10231 were used (The Polish Collection of Microorganism, Polish Academy of Sciences, Wrocław, Poland). Bacteria at initial inoculums of 0.5 × 10^5 CFU/mL in Mueller Hinton Broth (MHB), and fungi at initial inoculums of 2 × 10^3 CFU/mL in RPMI-1640, were exposed to the compounds over the concentration range of 1–512 μg/mL. The polystyrene plates were incubated at 37 °C for 18 h with bacteria and for 24 h with C. albicans. The MIC was taken as the lowest concentration at which a noticeable growth of microorganisms was inhibited. Minimum biofilm eradication concentrations (MBECs) were determined using a previously described protocol. For this purpose, 96-well polystyrene flat-bottom plates and a resazurin (7-hydroxy-3H-phenoxazin-3-one 10-oxide) were used. In this assay, a specific feature of resazurin is utilized, which upon the contact with living cells is metabolized and reduced from the basic blue form to pink resorufin. Briefly, 24-h cultures of microorganisms were diluted 1,000-fold and 100 μL of that suspension was added into the test plates. After 24 h of incubation at 37 °C, the wells of the plates were rinsed three times with phosphate buffer saline (PBS) to remove non-adherent cells. Subsequently, 100 μL of test compounds in concentration range (diluted in appropriate media) were added to each well. After 24 h of incubation at 37 °C, 20 μL of the resazurin (4 mg/mL) was added. The MBEC was read after 1 h. Additionally, anti-adhesive properties of the compounds were also analyzed. The assay was conducted on 96-well polystyrene flat-bottom plates. The preparation of inoculums was followed by a 500-fold dilution of 24-h cultures of microorganisms. Briefly, to evaluate the effect of the peptides in preventing biofilm formation, 50 μL of compounds in concentration range, diluted in appropriate medium, were prepared. Subsequently, the 50 μL of the bacterial/fungal inoculums were added to reach the same microbial density as that in MBEC assay. After 24 h of incubation at 37 °C, the wells were rinsed three times with PBS and the fresh media with resazurin (0.6 mg/mL) were added. Then, after 1 h of incubation, the minimum biofilm inhibitory concentrations (MBIC) were read. MBECs as well as MBICs were determined as the lowest concentration at which the reduction of resazurin was lower or equal (10% ± 0.5%) as compared to positive (100%) and negative (0%) controls. All experiments were performed in triplicate.
# [2] = system: S. aureus ATCC 25923 biofilm; type: cell-based, Staphylococcus aureus; conditions: ATCC 25923, 24 h
# Method: as §1
# S. aureus ATCC 25923 = type: cell-based, Staphylococcus aureus; conditions: ATCC 25923, 18 h
# Method: as §1
# [3] = system: E. faecalis PCM 2673 biofilm formation; type: cell-based, Enterococcus faecalis; conditions: 24 h
# Method: as §1
# [4] = system: E. faecalis PCM 2673 biofilm; type: cell-based, Enterococcus faecalis; conditions: 24 h
# Method: as §1
# E. faecalis PCM 2673 = type: cell-based, Enterococcus faecalis; conditions: PCM 2673, 18 h
# Method: as §1
# [5] = system: E. coli ATCC 25922 biofilm formation; type: cell-based, Escherichia coli; conditions: ATCC 25922, 24 h
# Method: as §1
# [6] = system: E. coli ATCC 25922 biofilm; type: cell-based, Escherichia coli; conditions: ATCC 25922, 24 h
# Method: as §1
# E. coli ATCC 25922 = type: cell-based, Escherichia coli; conditions: ATCC 25922, 18 h
# Method: as §1
# [7] = system: P. aeruginosa ATCC 9027 biofilm formation; type: cell-based, Pseudomonas aeruginosa; conditions: ATCC 9027, 24 h
# Method: as §1
# [8] = system: P. aeruginosa ATCC 9027 biofilm; type: cell-based, Pseudomonas aeruginosa; conditions: ATCC 9027, 24 h
# Method: as §1
# P. aeruginosa ATCC 9027 = type: cell-based, Pseudomonas aeruginosa; conditions: ATCC 9027, 18 h
# Method: as §1
# [9] = system: C. albicans ATCC 10231 biofilm formation; type: cell-based, Candida albicans; conditions: ATCC 10231, 24 h
# Method: as §1
# [10] = system: C. albicans ATCC 10231 biofilm; type: cell-based, Candida albicans; conditions: ATCC 10231, 24 h
# Method: as §1
# C. albicans ATCC 10231 = type: cell-based, Candida albicans; conditions: ATCC 10231, 24 h
# Method: as §1
# [11] = system: human red blood cells (RBCs); experiment: Hemolysis assay; type: cell-based; conditions: red cells of human, 1 h
# Method: The hemolytic activity of the peptides was determined using fresh human red blood cells (RBCs) collected from a healthy human donor according to the procedure described in the literature. Fresh RBCs with EDTA as anticoagulant were rinsed three times with a PBS by centrifugation at 800×g for 10 min and resuspension in PBS. Serial dilution of the peptides in PBS (1–256 μg/mL) on 96-well polystyrene plates was prepared and the stock solution of RBCs was added up to a final volume of 100 μL with a 4% concentration of erythrocytes (v/v). The control wells for 0 and 100% hemolysis contained of RBCs suspended in PBS and 1% of Triton-X 100, respectively. Subsequently, the plates were incubated for 1 h at 37 °C and then centrifuged at 800×g for 10 min at 4 °C (Sorvall ST 16R Centrifuge, Thermo Scientific). After centrifugation, the supernatant was carefully […] to new microtiter plates and the release of hemoglobin was measured at 540 nm (Multiskan™ GO Microplate Spectrophotometer, Thermo Scientific). All experiments were conducted in triplicate.
# in vitro = in vitro ADME; conditions: bovine, serum
# Method: To assess serum stability, the peptides (0.5 mg) were dissolved in 4 mL of 25% (v/v) fetal bovine serum (FBS) in PBS and incubated at 37 °C. The aliquots of 100 μL of the test samples were transferred to 96-well polystyrene plates in triplicate for each time point. Samples were quenched at zero time (t0) and after 6 h of incubation at 37 °C by addition of 100 μL of ice-cold acetonitrile and stored at 4 °C for 10 min. Afterwards, the samples were centrifuged at 13,000×g for 20 min at 4 °C and diluted 1:1 with HPLC-grade water. All samples were analyzed using the Waters Alliance e2695 system with Waters Acquity QDa Detector (software–Empower®3). Analyses were conducted on an Agilent Zorbax SB-C18 RP-18 column (4.6 × 50 mm, 1.8-μm particle size, 80-Å pore size) using a linear 30–60% acetonitrile (B) gradient in deionized water (A) over 6 min at 25.0 ± 0.1 °C, at a flow rate of 0.5 mL/min and MS working in selected ion recording (SIR) mode (A—0.1% aqueous formic acid (FA) and B—0.1% FA in acetonitrile). The percentage of peptide remaining intact was calculated from peak areas of samples at t0 and after 6 h of incubation in serum (the % of remaining peptide = peak area after 6 h/peak area at t0). The mass-to-charge ratios selected for SIR mode were based on values obtained from full spectrum analysis of each peptide and are presented in Table 1.
smiles,measurement,setting,value
CC[C@H](C)[C@H](NC(=O)[C@H](CCCCN)NC(=O)[C@H](CCCCN)NC(=O)[C@@H](NC(=O)[C@@H](NC(=O)[C@H](CC(=O)O)NC(=O)[C@H](C)NC(=O)[C@H](CC(C)C)NC(=O)CN)[C@@H](C)CC)[C@@H](C)CC)C(=O)N[C@@H](C)C(=O)N[C@@H](CCC(=O)O)C(=O)N[C@@H](CO)C(=O)N[C@@H](Cc1ccccc1)C(N)=O [Peptide F3A] (H-GLADIIKKIAESF-NH2),"MBIC, S. aureus ATCC 25923",[1],>512 µg/mL
same,"MBEC, S. aureus ATCC 25923",[2],> 512 µg/mL
same,"MIC, S. aureus ATCC 25923",S. aureus ATCC 25923,512 µg/mL
same,"MBIC, E. faecalis PCM 2673",[3],256 µg/mL
same,"MBEC, E. faecalis PCM 2673",[4],> 512 µg/mL
same,"MIC, E. faecalis PCM 2673",E. faecalis PCM 2673,256 µg/mL
same,"MBIC, E. coli ATCC 25922",[5],256 µg/mL
same,"MBEC, E. coli ATCC 25922",[6],256 µg/mL
same,"MIC, E. coli ATCC 25922",E. coli ATCC 25922,128 µg/mL
same,"MBIC, P. aeruginosa ATCC 9027",[7],512 µg/mL
same,"MBEC, P. aeruginosa ATCC 9027",[8],> 512 µg/mL
same,"MIC, P. aeruginosa ATCC 9027",P. aeruginosa ATCC 9027,512 µg/mL
same,"MBIC, C. albicans ATCC 10231",[9],4 µg/mL
same,"MBEC, C. albicans ATCC 10231",[10],> 512 µg/mL
same,"MIC, C. albicans ATCC 10231",C. albicans ATCC 10231,128 µg/mL
same,Percentage of hemolysis at 1 μg/mL,[11]; 1,0.1%
same,Percentage of hemolysis at 2 μg/mL,[11]; 2,0.1%
same,Percentage of hemolysis at 4 μg/mL,[11]; 4,0.0%
same,Percentage of hemolysis at 8 μg/mL,[11]; 8,0.0%
same,Percentage of hemolysis at 16 μg/mL,[11]; 16,0.0%
same,Percentage of hemolysis at 32 μg/mL,[11]; 32,0.0%
same,Percentage of hemolysis at 64 μg/mL,[11]; 64,0.0%
same,Percentage of hemolysis at 128 μg/mL,[11]; 128,0.0%
same,Percentage of hemolysis at 256 μg/mL,[11]; 256,0.3%
same,"remaining at 6 h, 0.125 mg/mL",in vitro,38%
